{"source": "patent US20250380697A1", "about": "“ISOXAZOLINE DERIVATIVE COMPOUND AND INSECTICIDAL COMPOSITION COMPRISING SAME” (KYUNG NONG CORPORATION, priority 2022, published 2025)", "type_in_all_cases": "in vivo", "key": {"[1]": {"test_system": "Frankliniella occidentalis", "test": "Pesticidal activity against Frankliniella occidentalis, spray method", "conditions": "48 h, read-out: mortality rate, Frankliniella occidentalis", "description": "A water-soaked filter paper (9.0 cm in diameter) was placed in an insect breeding dish (Lab Guide®) with a diameter of 9.0 cm and a height of 4.0 cm, and then parafilm (width 4.0 cm×height 4.0 cm) was placed thereon. Before treating with a pesticide composition, 10 adult Frankliniella occidentalis were inoculated per petri dish using a No. 4 brush. In this case, Frankliniella occidentalis adults used were those purchased from the Bio Utilization Institute (Andong, Korea). Then, each of the pesticide compositions prepared in Examples (a diluted solution in which each of the compounds of Synthesis Examples (concentration: 100 ppm) was diluted; the solvent=distilled water+acetone 50,000 mg/L+Triton X-100 100 mg/L) was loaded into a 100 mL small sprayer, and sprayed 10-12 times at a distance of 30 cm and a height of 50 cm, and one cotyledons of soybean, which is a host plant, were added one at a time. Then, the Frankliniella occidentalis adults were stored under the conditions of 16 hours of light and 8 hours of darkness, 25±1° C., and relative humidity of 50-60%, and the number of live Frankliniella occidentalis adults was counted 48 hours after the inoculation. Thereafter, the larvae mortality rate was calculated in the same manner as in Test Example 1 above."}, "Thrips tabaci Lindeman": {"test_system": "Thrips tabaci Lindeman", "test": "Pesticidal activity against Thrips tabaci Lindeman, spray method", "conditions": "adults, counted 24 and 48 hours, time not given, read-out: mortality rate, Thrips tabaci Lindeman", "description": "A water-soaked filter paper (9.0 cm in diameter) was placed in an insect breeding dish (Lab Guide®) with a diameter of 9.0 cm and a height of 4.0 cm, and then parafilm (width 4.0 cm×height 4.0 cm) was placed thereon. Before being treated with a pesticide composition, 10 adult Thrips tabaci Lindeman were inoculated per petri dish using a No. 4 brush. In this case, Thrips tabaci Lindeman adults used were those collected in a place near the Andong National University (Korea) and bred for multiple generations. Then, the pesticide composition where the compound of Synthesis Example 2 was diluted (the solvent=distilled water+acetone 50,000 mg/L+Triton X-100 100 mg/L) was loaded into a 100 mL small sprayer, and sprayed 10-12 times at a distance of 30 cm and a height of 50 cm, and one cotyledons of soybean, which is a host plant, were added one at a time. Then, the Thrips tabaci Lindeman adults were stored under the conditions of 16 hours of light and 8 hours of darkness, 25±1° C., and relative humidity of 50-60%, and the number of live Thrips tabaci Lindeman adults was counted 24, and 48 hours after the inoculation. Thereafter, the larvae mortality rate was calculated in the same manner as in Test Example 1 above."}, "Phaedon brassicae": {"test_system": "Phaedon brassicae", "test": "Pesticidal activity against Phaedon brassicae, leaf-dipping method", "conditions": "counted 24, 48, 72 hours, time not given, read-out: mortality rate, Phaedon brassicae", "experimental": "Cabbage (Daiya) leaves were cut into pieces with a diameter of 5.8 cm, dipped in the pesticide composition where the compound of Synthesis Example 2 was diluted (the solvent=distilled water+acetone 50,000 mg/L+Triton X-100 100 mg/L) for 30 seconds, and sufficiently shade-dried. Then, the shade-dried cabbage leaves were is placed in a petri dish (8.8 cm in diameter) covered with filter paper and repeatedly inoculated 3-5 times with the larvae of Phaedon brassicae, 10 larvae per inoculation. In particular, the Phaedon brassicae larvae used were those which were bred in the Andong National University (Korea) for multiple generations.\nAfter the inoculation, the Phaedon brassicae larvae were stored under the conditions of 16 hours of light and 8 hours of dark, 25±1° C. and 50-60% relative humidity, and the number of live Phaedon brassicae larvae was counted 24, 48, and 72 hours after the inoculation. Thereafter, the larvae mortality rate was calculated in the same manner as in Test Example 1 above."}}}
{"smiles": "CCN1OC[C@@H](NC(=O)c2ccc(C3=NO[C@@](c4cc(Cl)c(F)c(Cl)c4)(C(F)(F)F)C3)cc2C)C1=O", "note": "[Comparative Example 3, isocycloseram]", "values": [{"measurement": "mortality at 5 ppm", "setting": "[1]", "value": 100, "unit": "%"}, {"measurement": "mortality at 10 ppm", "setting": "[1]", "value": 100, "unit": "%"}, {"measurement": "mortality at 1 ppm", "setting": "Thrips tabaci Lindeman; 1 ppm", "value": 66, "unit": "%"}, {"measurement": "mortality at 3 ppm", "setting": "Thrips tabaci Lindeman; 3 ppm", "value": 76, "unit": "%"}, {"measurement": "mortality at 10 ppm", "setting": "Thrips tabaci Lindeman; 10 ppm", "value": 90, "unit": "%"}, {"measurement": "mortality at 1 ppm", "setting": "Phaedon brassicae; 1 ppm", "value": 100, "unit": "%"}, {"measurement": "mortality at 3 ppm", "setting": "Phaedon brassicae; 3 ppm", "value": 100, "unit": "%"}, {"measurement": "mortality at 10 ppm", "setting": "Phaedon brassicae; 10 ppm", "value": 100, "unit": "%"}]}
